Source: patent publication US9359338B2, “Cyclopropanecarboxamido-substitute aromatic compounds as anti-tumor agents” (Crown Bioscience Inc. (Taiwan), priority 2012, dated 2016)
pIC50: −log10 of the molar value.

Legend:
KDR kinase (790-1356 AA) = KDR kinase (790-1356 AA) (Homo sapiens (Human), UniProt P35968); assay: Inhibitory activity at KDR kinase (Lance Ultra Ulight-TK assay); type: biochemical
Protocol: Inhibitory Activity of Compounds at KDR Kinase
• [Experimental method]: Use Lance@Ultra Ulight™-TK assay kit from PerKinElmer to evaluate the inhibitory activity of compounds at KDR kinase. • [Instrument]: PerKinElmer's ENVISION plate reader • [Materials]: Optiplate-384 well plate (PerKinElmer), kinase buffer (50 mM Hepes pH7.5, 0.25 mM EGTA, 2 mM DTT, 0.01% Tween 20, 10 mM Mg^2+, 0.5 mM Mn^2+), KDR kinase (790-1356 AA, Crown Bioscience), KDR kinase substrate (PerKinElmer catalogue # TRF0127-M), Lance@Eu-W1024-anti-phosphotyrosine (PT66) (PerKinElmer, catalogue #AD0068), ATP (Invitrogen), DMSO (Sigma, catalogue #34869), purified water (Millipore, type: Milli-Q). • [Study conditions]: Mix KDR (final concentration: 20 nM) and compound (final DMSO: 0.5%), pre-incubate for 20 min at 30° C.; then add ATP (final concentration: 90 μM) and the substrate (final concentration […]). React for 2 hrs at 30° C. After the reaction, add antibody and reaction for 60 min at 30° C. Read the plate (615 nm, 665 nm), calculate the ratio of the value at 665 nm vs 615 nm and analyze the data. • [Samples]: Compounds in the examples and Sorafenib (positive control) • [Data Analysis]: Use CBIS data analysis software to calculate IC50 values

pERK in MDA-MB-231 cells = assay: Inhibitory activity at pERK (In Cell Western, MDA-MB-231 cells); type: cell-based; conditions: Homo sapiens, MDA-MB-231, MDA-MB-231 cells; read-out: MDA-MB-231 pERK IC50
Protocol: Inhibitory Activity of Compounds at pERK
When the cells reach 80% confluency, collect cells by trypsinization and centrifugation at 800 rpm for 3 minutes. Resuspend cells with appropriate volume of medium and count cell numbers. Adjust cell concentration to 70000 cells/mL, and split 100 μL cell suspension per well into 96-well plates. Transfer the plates into cell culture incubator (37° C., 5% CO2) and incubate cells overnight. Discard the medium, wash with PBS once, Prepare compound serial dilutions in culture medium with total 8 compound concentrations at 3-fold serial dilutions (the final top concentration starts from 30 μM). Dispense 75 μL DMEM medium (with 0.1% BSA) and 25 μL of each test compound dilution into corresponding wells with DMSO at 0.3% final concentration. Continue incubating cells in cell culture incubator for additional 2 hrs at 37° C., 5% CO2. Discard culture medium, and wash cells once with PBS. Add 100 μL of 4% formaldehyde solution to each well and fix for 20 min. Discard the formaldehyde, then add 100 μL ice-cold 100% methanol at 4° C. for 20 min. Discard methanol, wash with PBS three times. Add to each well 100 μL of 2% BSA solution, seal for 30 min at room temperature. Discard the BSA solution, add to each well 50 μL of the 1st antibody solution (prepared with 2% BSA, 1:250 dilution), incubate at 4° C. overnight. Discard the 1^St antibody solution, wash with PBS four times. Add to each well […] the 2nd antibody solution (prepared with 1% BSA, 1:1000 dilution), incubate at room temperature for 1 hr. Discard the 2nd antibody solution, wash with PBS four times, add to each well 100 μL PI solution (1.5 μM), incubate at room temperature for 30 min. Use Acumen (TPP) to measure the fluorescence. • [Samples]: Compounds in the examples and sorafenib (positive control) • [Data Analysis]: Use CBIS data analysis software to calculate IC50 values

PLC-PRF-5 cells = assay: Inhibition of proliferation of PLC-PRF-5 cells (ATPlite); type: cell-based; conditions: Homo sapiens, PLC-PRF-5, PLC-PRF-5 cells; read-out: PLC-PRF-5 cell proliferation IC50
Description: Inhibitory Activity of Compounds to the Proliferation of PLC-PRF-5 Cells
• [experimental Method]: Use PerKinElmer's ATPlite™ Luminescence ATP Detection Assay System to evaluate the inhibitory activity of compounds to the proliferation of PLC-PRF-5 cells. • [Instruments]: ENVISION plate reader (PerKinElmer) and centrifuge (Thermo Scientific, Sorvall ST16R) • [material]: PLC-PRF-5 cells (ATCC), 96-well plate (Nunc, #165305), DMEM medium (Gibco, #11965-092), PBS (Invitrogen, #10010023), fetal bovine serum (Gibco, #16000044), DMSO (Sigma, #D2650), ATPlite™ Luminescence ATP Detection Assay System (PerkinElmer, #6016949), purified water (Millipore, type: Milli-Q). • [Protocol]: Grow PLC-PRF-5 cells in DMEM supplemented with 10% FBS. When the cells reach 80% confluency, collect cells by trypsinization and centrifugation at 800 rpm for 3 min. Resuspend cells with appropriate volume of medium and count cell numbers. Adjust cell concentration to 50000 cells/mL, and split 160 μL cell suspension per well into 96-well plates. Transfer the plates into cell culture incubator (37° C., 5% CO2) and incubate cells for 2 hrs. Prepare compound serial dilutions in culture medium with total 8 compound concentrations at 3-fold serial dilutions (the final top concentration starts from 30 μM). Dispense 40 μL of each test compound dilution into corresponding wells with DMSO at 0.3% final concentration. Continue incubating cells in cell culture incubator for additional 96 hrs at 37° C., 5% CO2. Discard culture medium, and wash cells once with PBS. Add 50 μL cell lysis buffer per well and shake plates for 5 min at room temperature to ensure complete lysis of cells. Then add 50 μL of substrate solution and shake plates for 1 min at room temperature. Allow the plates to incubate at room temperature for 5 min, followed by recording the luminescence signals using Envision, and subsequent data analysis. • [Samples]: Compounds in the examples and Sorafenib (positive control) • [Data analysis]: Use CBIS data analysis software to calculate IC50 values

KDR kinase (790-1356 AA), sequence (P35968 790-1356): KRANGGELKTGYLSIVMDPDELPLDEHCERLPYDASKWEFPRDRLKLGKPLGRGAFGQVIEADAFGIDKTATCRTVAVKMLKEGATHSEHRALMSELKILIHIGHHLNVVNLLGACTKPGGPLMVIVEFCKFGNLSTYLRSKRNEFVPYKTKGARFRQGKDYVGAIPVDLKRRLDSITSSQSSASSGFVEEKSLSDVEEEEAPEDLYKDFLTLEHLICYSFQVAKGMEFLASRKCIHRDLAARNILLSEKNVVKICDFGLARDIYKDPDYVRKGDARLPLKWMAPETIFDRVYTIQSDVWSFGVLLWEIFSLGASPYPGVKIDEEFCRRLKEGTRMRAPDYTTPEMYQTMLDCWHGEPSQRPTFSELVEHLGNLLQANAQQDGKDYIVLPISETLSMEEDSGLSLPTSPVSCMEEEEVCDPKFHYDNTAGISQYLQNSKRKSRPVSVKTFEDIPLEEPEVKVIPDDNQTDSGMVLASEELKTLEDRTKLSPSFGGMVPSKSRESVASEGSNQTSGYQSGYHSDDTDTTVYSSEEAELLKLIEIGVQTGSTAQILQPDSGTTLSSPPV

SMILES	pIC50 (KDR kinase (790-1356 AA))	pIC50 (pERK in MDA-MB-231 cells)	pIC50 (PLC-PRF-5 cells)
Cc1cc(Oc2cc(NC(=O)C3CC3)ncn2)ccc1NC(=O)Nc1cc(NC(C)C)cc(C(F)(F)F)c1 [Exe. 032, N-[6-[4-[[3-(isopropylamino)-5-(trifluoromethyl)phenyl]carbamoylamino]-3-methyl-phenoxy]pyrimidin-4-yl]cyclopropanecarboxamide]	7.59	6.94	4.70
CC(F)(F)c1ccc(F)c(NC(=O)Nc2ccc(Oc3cc(NC(=O)C4CC4)ncn3)c(F)c2)c1 [Exe. 104]	7.99	6.60	7.00
CN1CCC(C(=O)Nc2cc(NC(=O)Nc3ccc(Oc4ccnc(NC(=O)C5CC5)c4)c(F)c3)cc(C(F)(F)F)c2)CC1 [Exe. 242]	7.78	6.43	5.33
O=C(Nc1cc(N2CCC(F)CC2)cc(C(F)(F)F)c1)Nc1ccc(Oc2ccnc(NC(=O)C3CC3)c2)c(F)c1 [Exe. 046]	7.78	7.24	6.19
Cc1cc(Oc2cc(NC(=O)C3CC3)ncn2)ccc1NC(=O)Nc1ccc(Cl)c(OC(F)(F)F)c1 [Exe. 082]	8.17	7.44	4.65
Cc1ccc(Oc2cc(NC(=O)C3CC3)ncn2)cc1NC(=O)Nc1ccc(Cl)c(C(F)(F)F)c1 [Exe. 014]	8.15	7.31	5.06
CC(F)(F)c1cc(NC(=O)Nc2cccc(Oc3cc(NC(=O)C4CC4)ncn3)c2)ccc1Cl [Exe. 122]	8.06	6.88	4.66
Nc1nnc(-c2cc(NC(=O)Nc3ccc(Oc4ccnc(NC(=O)C5CC5)c4)c(F)c3)cc(C(F)(F)F)c2)o1 [Exe. 042]	7.94	7.03	5.45
Cc1ccc(Oc2ccnc(NC(=O)C3CC3)c2)cc1NC(=O)Nc1ccc(F)c(C(C)(F)F)c1 [Exe. 229]	7.87	8.16	5.50
CC(F)(F)c1cccc(NC(=O)Nc2ccc(Oc3ccnc(NC(=O)C4CC4)c3)c(F)c2)c1 [Exe. 180]	8.01	7.50	6.82
CCOC(=O)C(C)(C)CNc1cc(NC(=O)Nc2ccc(Oc3ccnc(NC(=O)C4CC4)c3)c(F)c2)cc(C(F)(F)F)c1 [Exe. 050]	7.89	6.96	5.65
CN1CCC(c2ccc(NC(=O)Nc3ccc(Oc4ccnc(NC(=O)C5CC5)c4)c(F)c3)cc2C(F)(F)F)CC1 [Exe. 036]	7.81	6.54	5.62
O=C(Nc1cccc(C2CC2)c1)Nc1ccc(Oc2ccnc(NC(=O)C3CC3)c2)c(F)c1 [Exe. 057]	7.92	7.07	6.60
O=C(Nc1ccc(Oc2cc(NC(=O)C3CC3)ncn2)nc1)Nc1ccc(Cl)c(C(F)(F)F)c1 [Exe. 015]	8.38	7.03	5.19
O=C(Nc1ccc(F)c(C2CC2)c1)Nc1ccc(Oc2ccnc(NC(=O)C3CC3)c2)cc1F [Exe. 222]	8.06	7.76	6.31
O=C(Nc1ccnc(C(F)(F)F)c1)Nc1ccc(Oc2ccnc(NC(=O)C3CC3)c2)c(F)c1 [Exe. 158]	8.08	7.09	5.98

SMILES	pIC50 (KDR kinase (790-1356 AA))	pIC50 (pERK in MDA-MB-231 cells)	pIC50 (PLC-PRF-5 cells)
Cc1cc(NC(=O)Nc2cc(F)cc(C(C)(F)F)c2)ccc1Oc1ccnc(NC(=O)C2CC2)c1 [Exe. 233]	8.09	7.73	6.25
CN1CCC(C(=O)c2cc(NC(=O)Nc3ccc(Oc4ccnc(NC(=O)C5CC5)c4)c(F)c3)cc(C(F)(F)F)c2)CC1 [Exe. 040]	7.82	6.87	6.19
Cc1cc(Oc2cc(NC(=O)C3CC3)ncn2)c(F)cc1NC(=O)Nc1ccc(Cl)c(C(F)(F)F)c1 [Exe. 003]	7.78	7.06	4.94
Cc1cc(Oc2ccnc(NC(=O)C3CC3)c2)ccc1NC(=O)Nc1ccc(F)c(C(C)(F)F)c1 [Exe. 200]	8.00	8.26	5.50
O=C(Nc1ccc(Oc2ccnc(NC(=O)C3CC3)c2)c(F)c1)Nc1ccc(C(F)(F)F)cc1Cl [Exe. 160]	8.11	6.73	5.39
Cc1nc(NC(=O)Nc2ccc(Cl)c(C(F)(F)F)c2)ccc1Oc1cc(NC(=O)C2CC2)ncn1 [Exe. 011]	7.87	6.58	4.71
O=C(Nc1ccc(Oc2ccnc(NC(=O)C3CC3)c2)c(F)c1)Nc1cc(OC(F)(F)F)ccc1F [Exe. 176]	8.24	7.40	7.22
O=C(Nc1cc(F)cc(Oc2cc(NC(=O)C3CC3)ncn2)c1)Nc1ccc(Cl)c(C(F)(F)F)c1 [Exe. 005]	7.57	7.39	5.22
CN1CCN(c2cc(C(F)(F)F)cc(NC(=O)Nc3ccc(Oc4ccnc(NC(=O)C5CC5)c4)c(F)c3)n2)CC1 [Exe. 172]	7.83	7.13	6.71
O=C(Nc1ccc(F)c(Oc2cc(NC(=O)C3CC3)ncn2)c1)Nc1ccc(Cl)c(C(F)(F)F)c1 [Exe. 013]	7.85	7.30	4.79
CC(F)(F)c1cccc(NC(=O)Nc2ccc(Oc3cc(NC(=O)C4CC4)ncn3)c(F)c2)c1 [Exe. 103]	7.91	6.52	6.43
O=C(Nc1ccc(Oc2ccnc(NC(=O)C3CC3)c2)nc1)Nc1cc(N2CCC(F)CC2)cc(C(F)(F)F)c1 [Exe. 129]	7.85	6.98	5.65
Cc1cc(Oc2ccnc(NC(=O)C3CC3)c2)ccc1NC(=O)Nc1cc(C(C)(F)F)ccc1F [Exe. 198]	8.08	8.24	6.13
CN1CCC(c2cc(NC(=O)Nc3ccc(Oc4ccnc(NC(=O)C5CC5)c4)cn3)cc(C(F)(F)F)c2)CC1 [Exe. 134]	8.11	7.48	6.70
O=C(Nc1cc(NC2CC2)cc(C(F)(F)F)c1)Nc1ccc(Oc2ccnc(NC(=O)C3CC3)c2)c(F)c1 [Exe. 049]	8.00	7.29	6.19
N#Cc1cc(NC(=O)Nc2ccc(Cl)c(C(F)(F)F)c2)ccc1Oc1ccnc(NC(=O)C2CC2)c1 [Exe. 026]	7.74	7.41	6.05
